Test results published in patent US9468654B1, “Drug delivery compositions and methods” (WILKES UNIVERSITY, priority 2014, dated 2016).

Type: physicochemical
From the text: Referring to FIGS. 1A and B, differential scanning calorimetry thermographs compare the melting of (1A) lysine and (1B) a lysine-based drug delivery composition, according to this example. […] These observations, further confirmed with Raman spectroscopy and x-ray powder diffraction, are consistent with the nanosizing effect on melting point and thermal stability of crystals due to the increased surface to volume ratio.

**Q.** For `NCCCC[C@H](N)C(=O)O` [lysine], which “onset decomposition temperature (thermal stability)” value is on record?
**A.** The value was “about 257 °C”.
